The values below are quoted from earlier work in patent US11147926B2, “Intrathecal baclofen pharmaceutical dosage forms and related delivery system” (PIRAMAL CRITICAL CARE, INC., priority 2008, dated 2021).

Structures are written as SMILES.

The conditions of data set [1]: injected into the intrathecal space of a patient, at effective CSF concentrations, versus oral.

Regarding `NCC(CC(=O)O)c1ccc(Cl)cc1` (stereo not shown) [Baclofen, 4-amino-3-(p-chlorophenyl)butyric acid], for the setting “chloroform”, the solubility in chloroform result is “insoluble”. Under “methanol”, the solubility in methanol entry is recorded as “very slightly soluble”. Also, the solubility in water result (water) was “slightly soluble”. The “plasma concentrations, times less than with oral administration” value in data set [1] was 100 times.
